Assay results from publication PMC5882848, “Structural basis of interaction between dimeric cyclophilin 1 and Myb1 transcription factor in Trichomonas vaginalis” (Scientific Reports, 2018).
Entries after “also recorded” stand apart in the source; their conditions may differ.

What was measured:
[1] = biological target: FITC-labeled Myb1^104–111 peptide (Trichomonas vaginalis); experiment: fluorescence polarisation
[2] = biological target: Cyclophilin 1 (TvCyP1) of Trichomonas vaginalis (Trichomonas vaginalis); experiment: AUC; sedimentation velocity, 29 μM TvCyP1 (legend: 30 μM), 20 °C, 50,000 rpm; 20 mM monosodium phosphate, 50 mM NaCl, 0.5 mM NaN3, pH 6.0; Sedfit
[3] = biological target: Cyclophilin 1 (TvCyP1) of Trichomonas vaginalis (Trichomonas vaginalis); experiment: SEC-MALS; 300 μg TvCyP1 (3 mg/mL) on ENrich SEC 70 column; 20 mM monosodium phosphate, 50 mM NaCl, 0.5 mM NaN3, pH 6.0, 25 °C
TvCyP1 = experiment: NMR ROESY cis/trans isomerization (PPIase) of P107 in Myb1^104–111; format: biochemical, Trichomonas vaginalis
Procedure: ^1H-TOCSY, ^1H-COSY and ^1H-NOESY were performed at 300 K with a mixing time of 75 ms (TOCSY) and 300 ms (NOESY) on the Myb1^104–111 peptide to complete the assignment of proton resonances. The peptide was dissolved in 20 mM monosodium phosphate, 50 mM NaCl, 0.5 mM NaN3 (pH 6.0) to obtain a concentration of 2 mM. All ROESY experiments were performed at 300 K with 300 ms mixing time. […]

cyclophilins = settings: binding to the active site; cited from earlier work
Description: Catalytically active cyclophilins with a single cyclophilin domain reported till now are monomeric in nature.

isoforms of cyclophilins = system: isoforms of cyclophilins; set-up: method as in PMID 20676357; settings: cited from earlier work
[4] = cited from earlier work
Description: Nuclear translocation of Myb1 is an important step regulating the expression of disease causing ap65–1 gene. […] Moreover, CsA is not specific to any of the isof ...

parasite = settings: cited from earlier work
Description: In most cases, the biological substrates of these cyclophilins are unknown and extensive structural studies on cyclophilin- substrate interactions have not been reported.

Molecule | Kd [1] [µM] | stoichiometry N [2] | stoichiometry N [3] | inhibition of TvCyP1 isomerase activity (TvCyP1; ROESY, 300 ms mixing time, 300 K, pH 6.0, CsA 22 μM (1.0 molar equivalent), 4.4 mM Myb1^104–111, 22 μM TvCyP1) | inhibition of Myb1^104–111 binding to TvCyP1 active site (TvCyP1; from ROESY experiments, CsA) | inhibition of PPIase activity of cyclophilins (cyclophilins) | isoform specificity (isoforms of cyclophilins) | immunosuppressive activity [4] | anti-parasitic activity (parasite)
Cyclophilin 1 (TvCyP1) of Trichomonas vaginalis (enzyme) | 16.8 | 2 | 2 | – | – | – | – | – | –
cyclosporin A [CsA] | – | – | – | hindered catalysis; also recorded: loss of the exchange cross-peaks between cis and trans resonances | can inhibit Myb1^104–111 binding to the active site | PPIase activity of cyclophilins can be inhibited | not specific to any of the isoforms of cyclophilins | deleterious effect of its immunosuppressive activity | have been found with anti-parasitic activity
CC[C@H]1C[C@H](C)[C@@]2(NC1=O)O[C@@H](C[C@H](O)[C@@H](C)CC/C=C/C=C(\C)[C@@H]1C/C=C/C=C/[C@H](O)[C@H](C)[C@@H](O)[C@@H](CCC(C)=O)C(=O)N[C@@H](C(C)C)C(=O)N[C@@H](Cc3cccc(O)c3)C(=O)N3CCC[C@H](N3)C(=O)O1)[C@H](C)[C@H](O)[C@@H]2C [sanglifehrin A (SfA), sanglifehrin A] | – | – | – | – | – | PPIase activity of cyclophilins can be inhibited | – | – | –
